# Data reported in patent US8372598B2 (priority 2010, dated 2013).
# What was measured:
# [1] = tested on: Co-2164; assay: microbe, parasite or virus in culture; type: cell-based, Clostridium
# [2] = tested on: Co-5673; assay: microbe, parasite or virus in culture; type: cell-based, Clostridium
# [3] = tested on: mutant 10277; assay: Growth on agar plates with varying NaCl; type: cell-based, Clostridium; details: for CFU/ml: 48 hours
# [4] = tested on: parent Clostridium strain; assay: Growth on agar plates with varying NaCl; type: cell-based; details: for CFU/ml: 48 hours
# [5] = tested on: mutant 10256; assay: Growth on agar plates with varying NaCl; type: cell-based, Clostridium; details: for CFU/ml: 48 hours
# [6] = tested on: strain Co-1533; assay: MIC for NaCl; type: cell-based, Clostridium species; details: NaCl MIC determination
# [7] = tested on: strain Co-6232; assay: MIC for NaCl; type: cell-based, Clostridium species; details: NaCl MIC determination
# [8] = tested on: mutant 11303; assay: Growth on agar plates with varying NaCl; type: cell-based, Clostridium; details: for CFU/ml: 48 hours
# [9] = tested on: strain Co-9064; assay: MIC for NaCl; type: cell-based, Clostridium species; details: NaCl MIC determination
# [10] = tested on: mutants of Co-9064 selected as in Example 1; assay: Salt MIC / growth on NaCl plates, salt selection mutants as a group; type: cell-based, Clostridium
# [11] = tested on: mutant 11301; assay: Growth on agar plates with varying NaCl; type: cell-based, Clostridium; details: for CFU/ml: 48 hours
# [12] = tested on: parent; details: OD600, parent
# [13] = tested on: mutant #2
# [14] = tested on: mutants of Co-9064 selected as in Example 1; details: grown at increasing concentrations of butanol, FIGS. 2A and 2B
# [15] = tested on: mutant #1
# [16] = Clostridium, 40 min, read-out: Survival (% of control)
compound,measurement,setting,value
"CCOS(C)(=O)=O [EMS, ethyl methane sulfonate]",Survival (count),[1],5.8 × 10^6 (14%)
same,higher survival rate in comparison to Co-5673,[1],10%
same,activity at 30 µg/mL,[1]; [16],14%
same,Survival (count),"[2]; 30 μg/ml EMS, 40 minutes, 32° C., Co-5673",3.8 × 10^6
same,activity at 30 µg/mL,[2]; [16],4%
"[Cl-].[Na+] [NaCl, sodium chloride]",CFU/ml,[3]; NaCl 350 mM,lawn
same,CFU/ml,[3]; NaCl 400 mM,lawn
same,CFU/ml,[3]; NaCl 425 mM,2930 CFU/ml
same,CFU/ml,[3]; NaCl 450 mM,150 CFU/ml
same,CFU/ml,[3]; NaCl 475 mM,0 CFU/ml
same,grew on plates containing up to,"[3]; NaCl plates, mutant 10277",450 mM
same,CFU/ml,[4]; NaCl 350 mM,6000 CFU/ml
same,CFU/ml,[4]; NaCl 400 mM,0 CFU/ml
same,CFU/ml,[4]; NaCl 425 mM,0 CFU/ml
same,CFU/ml,[4]; NaCl 450 mM,0 CFU/ml
same,CFU/ml,[4]; NaCl 475 mM,0 CFU/ml
same,grew on plates containing up to,"[4]; NaCl plates, parent strain",325 mM
same,no growth at this NaCl concentration and higher,"[4]; solid medium, parent",≥ 400 mM
same,CFU/ml,[5]; NaCl 350 mM,lawn
same,CFU/ml,[5]; NaCl 400 mM,lawn
same,CFU/ml,[5]; NaCl 425 mM,480 CFU/ml
same,CFU/ml,[5]; NaCl 450 mM,20 CFU/ml
same,CFU/ml,[5]; NaCl 475 mM,0 CFU/ml
same,grew on plates containing up to,"[5]; NaCl plates, mutant 10256",450 mM
same,highest concentration at which growth was observed,[6],275 mM
same,highest concentration of salt at which growth was observed,[7],325 mM
same,CFU/ml,[8]; NaCl 350 mM,lawn
same,CFU/ml,[8]; NaCl 400 mM,lawn
same,CFU/ml,[8]; NaCl 425 mM,800 CFU/ml
same,CFU/ml,[8]; NaCl 450 mM,10 CFU/ml
same,CFU/ml,[8]; NaCl 475 mM,0 CFU/ml
same,grew on plates containing up to,"[8]; NaCl plates, mutant 11303",450 mM
same,highest concentration at which growth was observed,[9],300 mM
same,increase of salt tolerance (salt MIC) compared to the parent strain,[10]; mutants versus parent,more than 100 mM
same,growth up to,"[10]; solid medium, four of the mutants",450 mM
same,CFU/ml,[11]; NaCl 350 mM,lawn
same,CFU/ml,[11]; NaCl 400 mM,lawn
same,CFU/ml,[11]; NaCl 425 mM,220 CFU/ml
same,CFU/ml,[11]; NaCl 450 mM,30 CFU/ml
same,CFU/ml,[11]; NaCl 475 mM,0 CFU/ml
same,grew on plates containing up to,"[11]; NaCl plates, mutant 11301",450 mM
n-butanol,% of added n-butanol (v/v) at 50% inhibition,[12],0.98 % (v/v)
same,% improvement,[13],69.96%
same,% of added n-butanol (v/v) at 50% inhibition,[13],1.66 % (v/v)
same,butanol tolerance compared to the parent strain,[14],improved butanol tolerance
same,% improvement,[15],20.89%
same,% of added n-butanol (v/v) at 50% inhibition,[15],1.18 % (v/v)
